Assays:
Assay type in all cases: biochemical
[1] = tested on: red click beetle luciferase; assay: Quenching phosphorescence from white luminometer plate, signal/background with red click beetle luciferase (Example IV); conditions: relative to phosphorescence S/B before dye
Experimental: (§1) Stocks of Amaranth (Aldrich, 120561), Benzopurpurin 4B (Aldrich # 22882), and Fluorescence Brightener 28 (Aldrich 475300) were prepared in DMSO (Sigma) at 100 μM. Luminometer plates (96-well) were purchased from Dynex Technologies. The luminometer plates were broken into pieces that would fit into single luminometer tubes (12 mm diameter) purchased from Promega Corporation. All experiments were performed in a lab under normal fluorescent lighting.
(§2) The experiment measured the signal/background ratio before and after the addition of colored compounds or DMSO. Luminescence measurements were taken from the empty luminescent tube in each experiment to quantitate background. A piece of white luminescent plate, 100 μl of Bright-Glo™ Reagent prepared according to the manufacturer's instructions (Promega Corporation), and 100 μl of Glo Lysis Buffer (Promega Corporation) were placed into the luminescent tube, and the luminescence was again measured. […] 2 μl of DMSO or one of the dyes in DMSO were then added to the tube, the sample was mixed, and the luminescence was measured a third time. This measurement captured the amount of luminescence emitted through the now-colored reagent or the reagent containing the DMSO carrier. Finally, 2 μl of luciferase was added to the tube, the sample was mixed, and the luminescence measured a final time. […]

firefly luciferase [2] = assay: Quenching phosphorescence from white luminometer plate, signal/background with firefly luciferase (Example IV); conditions: relative to phosphorescence S/B before dye
Experimental: as §1, §2

firefly luciferase [3] = target: firefly luciferase (Photinus pyralis, UniProt P08659); assay: Effect of quench reagents on firefly luciferase luminescent reaction (FIGS. 1-3); conditions: luminescence normalized to value without the reagent
Experimental: To test the effect of coelenterazine hh methyl ether on a firefly luciferase luminescent reaction, a luciferase reagent was prepared (270 μM coenzyme A (Pharmacia), 530 μM ATP (Pharmacia), 20 mM Tricine pH 7.8 (Fisher), 1 mM magnesium carbonate (Sigma), 0.1 mM ETDA (Sigma), 2.7 mM magnesium sulfate (Sigma), and 33 mM dithiothreitol (Sigma)) with varying concentrations of beetle luciferin (Promega), both above and below the concentration required for luciferase saturation (940 μM, 470 μM, 235 μM and 117.5 μM, saturation occurs at about 470 μM). […] Luminescence from firefly luciferase was measured by adding 20 μl of firefly luciferase (5×10^−14 moles/reaction) (Promega Corp.) in 1× Cell Culture Lysis Reagent (Promega Corporation) containing 1 mg/ml bovine serum albumin (BSA) to 100 μl of the luciferase reagents. Luminescence was normalized to the value integrated in the absence of coelenterazine hh methyl ether.
To test the effect of Tergitol® NP-9 on the firefly luciferase luminescent reaction, Luciferase Assay Reagent (Promega Corporation) was prepared according to the manufacturer's instructions. […] Luminescence was integrated after adding 20 μl of firefly luciferase (2.5×10^−14 moles/reaction) in 150 mM HEPES pH 7.4 and 1 mg/ml gelatin, to 100 μl of reagent. Luminescence was normalized to the value integrated for no detergent. […]

Renilla luciferase = target: T1, Renilla luciferase (Renilla reniformis, UniProt P27652); assay: Selective quench of Renilla luciferase luminescent reaction (Example I); conditions: for Fold quench of Renilla luciferase: Luciferase Assay Reagent with 1% Tergitol NP-9, 200 μM coelenterazine hh methyl ether, 1 mM berberine hemisulfate or combinations, initial divided by residual luminescence
T1 sequence (P27652 1-311): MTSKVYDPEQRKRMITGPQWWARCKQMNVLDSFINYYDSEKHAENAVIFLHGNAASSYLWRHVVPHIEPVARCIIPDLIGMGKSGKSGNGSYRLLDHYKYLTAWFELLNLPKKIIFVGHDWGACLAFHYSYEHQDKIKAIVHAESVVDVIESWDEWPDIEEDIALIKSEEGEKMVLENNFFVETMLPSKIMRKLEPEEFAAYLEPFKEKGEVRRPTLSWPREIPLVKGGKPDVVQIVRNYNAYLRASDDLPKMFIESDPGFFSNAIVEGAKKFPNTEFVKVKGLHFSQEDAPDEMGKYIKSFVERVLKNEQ
Experimental: Each buffer was added to a vial of Luciferase Assay Substrate (pt. El 51, Promega Corporation) to make Luciferase Assay Reagent (LAR) plus the quenching agent(s). […] Luminescence was initiated by addition of 20 μl of enzyme solution to 100 μl of Renilla Luciferase Assay Reagent, and measured. […] Fold quench was calculated as the quotient of the initial Renilla luciferase luminescence divided by the residual Renilla luciferase luminescence.

[4] = tested on: horseradish peroxidase (HRP); assay: Quenching light from horseradish peroxidase/luminol chemiluminescent reaction (Example III, FIG. 4)
Experimental: 20 μl of 0.044 mg/ml horseradish peroxidase (HRP), prepared in KPO4, pH 6.5, was added to 100 μl of 50 mM NaHCO3, 2 μM H2O2+/−100 μM berberine hemisulfate. […] 100 μl of 10 mM Luminol (Sigma) in 55 mM NaOH was then added to initiate the chemiluminescent reaction and the luminescence was measured on a luminometer. Luminescence was captured at various times after reaction initiation.

Chain of firefly luciferase (Photinus pyralis, UniProt P08659) (P08659 whole entry): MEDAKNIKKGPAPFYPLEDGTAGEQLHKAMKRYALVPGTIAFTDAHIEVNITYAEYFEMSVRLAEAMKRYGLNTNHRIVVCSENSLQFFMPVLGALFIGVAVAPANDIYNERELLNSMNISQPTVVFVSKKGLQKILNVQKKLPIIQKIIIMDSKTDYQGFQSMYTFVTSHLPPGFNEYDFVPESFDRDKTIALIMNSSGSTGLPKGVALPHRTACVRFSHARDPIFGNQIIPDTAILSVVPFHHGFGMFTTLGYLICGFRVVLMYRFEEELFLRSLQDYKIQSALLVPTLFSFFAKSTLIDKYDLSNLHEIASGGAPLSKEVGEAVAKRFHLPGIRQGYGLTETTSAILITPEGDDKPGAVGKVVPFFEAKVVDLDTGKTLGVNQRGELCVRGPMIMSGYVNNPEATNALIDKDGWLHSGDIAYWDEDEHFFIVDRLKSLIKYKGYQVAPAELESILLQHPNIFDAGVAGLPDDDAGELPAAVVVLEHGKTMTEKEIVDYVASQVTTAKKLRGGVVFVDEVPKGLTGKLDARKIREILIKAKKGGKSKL

Cc1cc(-c2ccc(N=Nc3cc(S(=O)(=O)[O-])c4ccccc4c3N)c(C)c2)ccc1N=Nc1cc(S(=O)(=O)[O-])c2ccccc2c1N.[Na+].[Na+] [Benzopurpurin 4B]
S/B Improvement [1]: 4500%

O=S(=O)([O-])c1cc(Nc2nc(Nc3ccccc3)nc(N(CCO)CCO)n2)ccc1/C=C/c1ccc(Nc2nc(Nc3ccccc3)nc(N(CCO)CCO)n2)cc1S(=O)(=O)[O-].[Na+].[Na+] [Fluorescence Brightener, Fluorescence Brightener 28]
S/B Improvement (firefly luciferase [2]): 440%

COc1c(Cc2ccccc2)nc2c(Cc3ccccc3)nc(-c3ccccc3)cn12 [coelenterazine hh methyl ether, 2,8-dibenzyl-3-methoxy-6-phenyl-imidazo[1,2-a]pyrazine]
effect on firefly luciferase luminescence (firefly luciferase [3]): not affected

OCCN(CCO)c1nc(N2CCCCC2)c2nc(N(CCO)CCO)nc(N3CCCCC3)c2n1 [dipyridamole]
quench of the Renilla luciferase luminescent reaction (Renilla luciferase; at 1 mM): about 35 fold

Tergitol NP-9
Fold quench of Renilla luciferase (Renilla luciferase): 86.67 fold

berberine hemisulfate
effect on firefly luciferase luminescence (firefly luciferase [3]): not affected
Fold quench of Renilla luciferase (Renilla luciferase): 46 fold
effect on horseradish peroxidase chemiluminescence (FIG. 4) [4]: quenches
quench of horseradish peroxidase-dependent chemiluminescence ([4]; 100 μM berberine hemisulfate, luminol): over 500 fold

Source: patent US20040224377A1, “Compositions and methods to quench light from optical reactions” (priority 2003, published 2004)
